According to patent US20080306128A1, “Preparation of Hydrochloride Salts of Tetrazole Derivative” (priority 2004, published 2008):

Test: stability of the new salt form on longer heating at increased temperatures
Type: physicochemical

SMILES: CCCCC1=NC2(CCCC2)C(=O)N1Cc1ccc(-c2ccccc2-c2nnn[nH]2)cc1.Cl [2-butyl-1-[2′-(1H-tetrazol-5-yl)bifenyl-4-yl-methyl]spiro[2-imidazoline-4.1′-cyclopentane]-5-one hydrochloride]
- stability (decomposition on heating): does not decompose
